US20180318383A1, “PEPTIDE HAVING NEURONAL LOSS PREVENTION AND REGENERATION EFFECTS, AND COMPOSITION CONTAINING SAME” (GEMVAX & KAEL CO., LTD., priority 2015, published 2018)

Key:
GalC = GalC expression in 3XTg-AD mice (western blotting, immunostaining); type: in vivo; conditions: hippocampus and whole brain; s.c. three times a week for two months; vs control and Donepezil, same amount
Method: To test the efficacy of PEP1 on AD, AD transgenic mice (3XTg-AD) were purchased from Jackson Laboratory. Genetic characteristics of the transgenic mice are as follows: B6; 129-Psen1tm1Mpm Tg(APPSwe, tauP301L)1Lfa/Mmjax. […] One week after mice were confirmed as pregnant, new mice were delivered and weaned for 3 weeks. Two weeks later, mature mice were obtained.
During the preliminary breeding and the entire period of the experiment, a temperature was maintained at 23±2° C. and a relative humidity was maintained at 60±10%, and then the mice were raised under a 12-hour dark/light cycle. Experimental animals were divided into five groups, and each group included 10 animals. The divided experimental groups are as follows. […]
The PEP1, physiological saline, donepezil and scramble peptide were subcutaneously injected at each concentration three times a week for two months from the age of 12 months, and then two months after the injection, cognitive/memory behavior tests (passive avoidance test and Y maze test) were performed to examine a degree of improvement in cognitive function and memory function. After the brain was extracted to separate the hippocampus, the amounts of amyloid beta in the hippocampus and the whole brain, and the amounts of an amyloid beta oligomer and NFT generated by tau hyperphosphorylation were determined by western blotting and immunostaining. […]

[1] = Cell-free ROS production (DHBA level by HPLC); conditions: 20 μM Aβ25-35 and PEP1 0, 1, 10, 50 μM
Method: To investigate how Aβ25-30 and PEP1 influenced ROS, a DHBA level was measured and observed by a cell-free method. This method was carried out by observing the DHBA level in a tube containing 20 μM Aβ25-30 and each concentration of PEP1 (0, 1, 10 or 50 μM) through HPLC.

NSCs [2] = experiment: Proteomics and antibody microarray of NSCs; type: cell-based, rat; conditions: 20 μM Aβ25-35 + 10 μM PEP1, 48 hours, antibody microarray
Method: The cultured NSCs were washed with cold PBS twice, and disrupted in a sample lysis buffer using a sonicator for 10 seconds. In addition, the cells were disrupted again for a further 1 hour at room temperature. After centrifugation at 15° C. and 15000 g for 1 hour, a non-water-soluble sample was eliminated, and only water-soluble samples were subjected to two-dimensional electrophoresis. A protein concentration was quantified by a Bradford method.
200 μg of a protein sample was loaded on an Immobiline DryStrip gel. […] was performed at 20° C. For electron focusing, a voltage was increased from 150 volts to 3500 volts over 3 hours to allow the sample to enter the gel. Before entering two-dimensionally, the sample was cultured in an equilibration buffer for 10 minutes. […]
For quantitative analysis, images were analyzed with a PDQuest system. […]
To identify a protein through peptide mass fingerprinting, a protein spot was cleaved into smaller peptides using trypsin, well mixed with a-cyano-4-hydroxycinnamic acid in 50% acetonitrile/0.1% TFA, and then analyzed with MALDI-TOF. […]
For antibody microarray analysis, a panorama antibody cell signaling kit was used. […] Array slides were read using a scanner, and results from the obtained scans were analyzed using an analysis program.

NSCs [3] = experiment: Oxidative mitochondrial DNA damage (8-OHdG ELISA); type: cell-based, rat; conditions: 20 μM Aβ25-35 + PEP1
Method: The oxidative DNA damage in the mitochondria was observed using an 8-OHdG ELISA kit. The mitochondria DNA was obtained using a genomic DNA isolation kit. 8-OHdG monoclonal antibodies were added to samples and a control group, and then corresponding HRP-attached secondary antibodies were added thereto. The samples were quantified using 8-OHdG and observed by measuring absorbance at 450 nm.

For “EARPALLTSRLRFIPK (homo sapiens) [PEP1, hTERT-derived peptide consisting of 16 amino acids, telomerase location [611-626]]”, the Galc (GalC) was “increased”, the “ROS production under a cell-free condition” value [1] was “did not exhibit a significant influence” and the “phosphorylated proteins associated with proliferation” value (NSCs [2]) was “recovered”. The “oxidative mitochondrial DNA damage” value (NSCs [3]) was “effectively decreased”.
